Reference: ChEMBL document CHEMBL4507320, “Data for DCP probe NVS-MALT1” (2021)

Key:
[1] = target: Mitogen-activated protein kinase kinase kinase 12 (Homo sapiens) (UniProt Q12852); details: Compound concentration 1000.0 nM
[2] = target: Serine/threonine-protein kinase WNK4 (Homo sapiens) (UniProt Q96J92); details: Compound concentration 1000.0 nM
[3] = target: Serine/threonine-protein kinase DCLK1 (Homo sapiens) (UniProt O15075); details: Compound concentration 1000.0 nM
[4] = target: NUAK family SNF1-like kinase 1 (Homo sapiens) (UniProt O60285); details: Compound concentration 1000.0 nM
[5] = target: Dual specificity tyrosine-phosphorylation-regulated kinase 1B (Homo sapiens) (UniProt Q9Y463); details: Compound concentration 1000.0 nM
[6] = target: Cyclin-dependent kinase 16 (Homo sapiens) (UniProt Q00536); details: Compound concentration 1000.0 nM
[7] = target: Serine/threonine-protein kinase haspin (Homo sapiens) (UniProt Q8TF76); details: Compound concentration 1000.0 nM
[8] = target: Serine/threonine-protein kinase OSR1 (Homo sapiens) (UniProt O95747); details: Compound concentration 1000.0 nM
[9] = target: Mitogen-activated protein kinase kinase kinase kinase 3 (Homo sapiens) (UniProt Q8IVH8); details: Compound concentration 1000.0 nM
[10] = target: 5-hydroxytryptamine receptor 2C (Homo sapiens) (UniProt P28335); details: Compound concentration 10.0 uM
[11] = target: Mitogen-activated protein kinase kinase kinase kinase 2 (Homo sapiens) (UniProt Q12851); details: Compound concentration 1000.0 nM
[12] = tested on: Tyrosine-protein kinase ABL1 (Homo sapiens), P00519 [T315I]; details: Compound concentration 1000.0 nM
[13] = tested on: Epidermal growth factor receptor (Homo sapiens), P00533 [G719C]; details: Compound concentration 1000.0 nM
[14] = target: Ribosomal protein S6 kinase alpha-2 (Homo sapiens) (UniProt Q15349); details: Compound concentration 1000.0 nM
[15] = tested on: Phosphatidylinositol 4,5-bisphosphate 3-kinase catalytic subunit alpha isoform (Homo sapiens), P42336 [E542K]; details: Compound concentration 1000.0 nM
Sequence of Phosphatidylinositol 4,5-bisphosphate 3-kinase catalytic subunit alpha isoform (Homo sapiens), P42336 [E542K] (P42336 whole entry E542K, canonical isoform): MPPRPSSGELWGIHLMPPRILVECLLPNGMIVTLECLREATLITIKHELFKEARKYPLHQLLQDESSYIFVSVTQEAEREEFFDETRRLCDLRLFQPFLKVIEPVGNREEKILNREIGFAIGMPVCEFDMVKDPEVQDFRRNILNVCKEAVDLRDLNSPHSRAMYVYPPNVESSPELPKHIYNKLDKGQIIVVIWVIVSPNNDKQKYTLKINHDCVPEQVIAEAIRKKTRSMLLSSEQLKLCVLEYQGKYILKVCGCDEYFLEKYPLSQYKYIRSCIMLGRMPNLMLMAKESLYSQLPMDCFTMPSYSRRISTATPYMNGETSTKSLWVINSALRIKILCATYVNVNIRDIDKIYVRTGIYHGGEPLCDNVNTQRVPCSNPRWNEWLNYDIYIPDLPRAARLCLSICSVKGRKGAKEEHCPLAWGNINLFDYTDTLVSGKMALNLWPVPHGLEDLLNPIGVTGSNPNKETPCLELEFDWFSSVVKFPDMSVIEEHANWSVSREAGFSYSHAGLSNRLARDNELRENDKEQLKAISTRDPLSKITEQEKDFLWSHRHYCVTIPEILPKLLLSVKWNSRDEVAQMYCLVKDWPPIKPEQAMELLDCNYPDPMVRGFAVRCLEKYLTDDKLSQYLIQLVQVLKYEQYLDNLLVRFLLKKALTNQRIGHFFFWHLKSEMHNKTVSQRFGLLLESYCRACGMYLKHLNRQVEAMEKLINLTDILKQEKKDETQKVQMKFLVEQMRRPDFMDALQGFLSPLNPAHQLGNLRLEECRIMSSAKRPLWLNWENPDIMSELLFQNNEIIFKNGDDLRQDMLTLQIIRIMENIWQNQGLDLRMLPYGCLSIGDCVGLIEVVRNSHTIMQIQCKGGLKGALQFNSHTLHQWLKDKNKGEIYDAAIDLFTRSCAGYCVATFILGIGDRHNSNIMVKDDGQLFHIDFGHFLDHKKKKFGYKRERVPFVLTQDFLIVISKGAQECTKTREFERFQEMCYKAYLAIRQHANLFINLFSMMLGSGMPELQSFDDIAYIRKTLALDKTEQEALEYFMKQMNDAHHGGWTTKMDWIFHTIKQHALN

[16] = tested on: Receptor-type tyrosine-protein kinase FLT3 (Homo sapiens), P36888 [R834Q]; details: Compound concentration 1000.0 nM
[17] = target: Serine/threonine-protein kinase DCLK2 (Homo sapiens) (UniProt Q8N568); details: Compound concentration 1000.0 nM
[18] = target: Casein kinase II subunit alpha (Homo sapiens) (UniProt P68400); details: Compound concentration 1000.0 nM
[19] = target: Ribosomal protein S6 kinase alpha-3 (Homo sapiens) (UniProt P51812); details: Compound concentration 1000.0 nM
[20] = target: ALK tyrosine kinase receptor (Homo sapiens) (UniProt Q9UM73); details: Compound concentration 1000.0 nM
[21] = tested on: Receptor-type tyrosine-protein kinase FLT3 (Homo sapiens), P36888 [D835V]; details: Compound concentration 1000.0 nM
[22] = target: NT-3 growth factor receptor (Homo sapiens) (UniProt Q16288); details: Compound concentration 1000.0 nM
[23] = target: Serine/threonine-protein kinase 36 (Homo sapiens) (UniProt Q9NRP7); details: Compound concentration 1000.0 nM
Sequence of Serine/threonine-protein kinase 36 (Homo sapiens) (Q9NRP7 whole entry): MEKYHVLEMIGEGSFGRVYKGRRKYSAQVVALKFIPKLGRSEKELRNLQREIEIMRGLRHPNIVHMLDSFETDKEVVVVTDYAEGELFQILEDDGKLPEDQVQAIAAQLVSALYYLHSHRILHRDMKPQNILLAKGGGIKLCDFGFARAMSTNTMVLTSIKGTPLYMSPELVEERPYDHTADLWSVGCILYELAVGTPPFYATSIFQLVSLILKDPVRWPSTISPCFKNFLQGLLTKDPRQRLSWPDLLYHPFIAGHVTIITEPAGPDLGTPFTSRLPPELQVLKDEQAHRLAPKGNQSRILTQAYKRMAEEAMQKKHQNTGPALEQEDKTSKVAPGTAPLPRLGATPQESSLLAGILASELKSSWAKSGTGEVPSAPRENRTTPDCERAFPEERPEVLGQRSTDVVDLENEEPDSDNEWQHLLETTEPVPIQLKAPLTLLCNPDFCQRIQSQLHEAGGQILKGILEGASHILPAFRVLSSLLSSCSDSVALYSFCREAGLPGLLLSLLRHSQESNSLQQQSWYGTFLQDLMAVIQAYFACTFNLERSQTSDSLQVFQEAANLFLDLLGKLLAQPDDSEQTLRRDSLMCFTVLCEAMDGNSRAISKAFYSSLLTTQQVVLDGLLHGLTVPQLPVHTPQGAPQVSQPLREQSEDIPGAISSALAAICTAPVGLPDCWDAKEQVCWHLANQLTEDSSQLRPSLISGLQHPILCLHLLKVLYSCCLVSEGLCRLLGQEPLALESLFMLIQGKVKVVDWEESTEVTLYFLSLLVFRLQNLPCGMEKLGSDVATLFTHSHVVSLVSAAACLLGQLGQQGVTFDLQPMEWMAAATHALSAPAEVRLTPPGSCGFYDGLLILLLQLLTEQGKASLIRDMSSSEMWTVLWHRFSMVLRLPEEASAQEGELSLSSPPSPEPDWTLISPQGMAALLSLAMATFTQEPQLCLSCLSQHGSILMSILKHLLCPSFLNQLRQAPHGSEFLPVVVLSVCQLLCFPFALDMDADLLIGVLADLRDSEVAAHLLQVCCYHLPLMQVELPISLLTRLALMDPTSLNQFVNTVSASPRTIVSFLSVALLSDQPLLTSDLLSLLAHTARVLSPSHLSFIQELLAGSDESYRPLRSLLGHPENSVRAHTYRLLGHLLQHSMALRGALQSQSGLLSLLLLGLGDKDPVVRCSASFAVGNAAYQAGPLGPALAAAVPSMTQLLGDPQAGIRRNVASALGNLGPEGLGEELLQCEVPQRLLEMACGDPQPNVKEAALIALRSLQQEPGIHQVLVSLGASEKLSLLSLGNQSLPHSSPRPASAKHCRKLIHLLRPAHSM

[24] = target: Mitogen-activated protein kinase kinase kinase 10 (Homo sapiens) (UniProt Q02779); details: Compound concentration 1000.0 nM
[25] = target: Bone morphogenetic protein receptor type-1B (Homo sapiens) (UniProt O00238); details: Compound concentration 1000.0 nM
Sequence of Bone morphogenetic protein receptor type-1B (Homo sapiens) (O00238 whole entry): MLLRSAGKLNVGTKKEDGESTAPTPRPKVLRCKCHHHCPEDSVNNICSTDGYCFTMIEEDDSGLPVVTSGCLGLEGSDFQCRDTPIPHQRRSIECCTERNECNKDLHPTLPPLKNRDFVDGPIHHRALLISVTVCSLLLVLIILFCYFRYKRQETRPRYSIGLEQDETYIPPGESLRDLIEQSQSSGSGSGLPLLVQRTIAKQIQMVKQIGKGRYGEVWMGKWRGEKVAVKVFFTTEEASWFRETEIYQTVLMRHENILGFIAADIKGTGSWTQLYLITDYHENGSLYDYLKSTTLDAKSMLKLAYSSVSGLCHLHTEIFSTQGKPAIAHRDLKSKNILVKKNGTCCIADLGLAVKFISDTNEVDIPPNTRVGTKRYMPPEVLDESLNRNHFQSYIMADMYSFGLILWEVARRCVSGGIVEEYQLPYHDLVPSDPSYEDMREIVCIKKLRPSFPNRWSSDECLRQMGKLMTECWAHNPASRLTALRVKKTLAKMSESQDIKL

[26] = target: 5-hydroxytryptamine receptor 2A (Homo sapiens) (UniProt P28223); details: Compound concentration 10.0 uM
[27] = target: TGF-beta receptor type-2 (Homo sapiens) (UniProt P37173); details: Compound concentration 1000.0 nM
[28] = target: Protein kinase C epsilon type (Homo sapiens) (UniProt Q02156); details: Compound concentration 1000.0 nM
[29] = target: Citron Rho-interacting kinase (Homo sapiens) (UniProt O14578); details: Compound concentration 1000.0 nM
[30] = target: Serine/threonine-protein kinase Chk2 (Homo sapiens) (UniProt O96017); details: Compound concentration 1000.0 nM
[31] = target: Phosphatidylinositol 4,5-bisphosphate 3-kinase catalytic subunit gamma isoform (Homo sapiens) (UniProt P48736); details: Compound concentration 1000.0 nM
[32] = target: Cyclin-dependent kinase 8 (Homo sapiens) (UniProt P49336); details: Compound concentration 1000.0 nM
Sequence of Cyclin-dependent kinase 8 (Homo sapiens) (P49336 whole entry): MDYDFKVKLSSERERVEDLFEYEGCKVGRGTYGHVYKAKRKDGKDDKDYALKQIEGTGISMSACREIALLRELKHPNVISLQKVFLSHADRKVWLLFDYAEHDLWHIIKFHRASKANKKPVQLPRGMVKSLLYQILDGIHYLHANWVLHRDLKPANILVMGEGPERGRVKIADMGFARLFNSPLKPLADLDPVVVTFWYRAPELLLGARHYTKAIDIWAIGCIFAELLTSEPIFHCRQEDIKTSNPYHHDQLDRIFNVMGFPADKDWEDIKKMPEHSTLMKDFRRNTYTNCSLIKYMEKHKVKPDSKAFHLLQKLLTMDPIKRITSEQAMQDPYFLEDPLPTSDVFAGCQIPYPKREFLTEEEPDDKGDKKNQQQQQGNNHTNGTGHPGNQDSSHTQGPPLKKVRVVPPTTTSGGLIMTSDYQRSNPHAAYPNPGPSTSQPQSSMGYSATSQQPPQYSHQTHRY

[33] = target: 3-phosphoinositide-dependent protein kinase 1 (Homo sapiens) (UniProt O15530); details: Compound concentration 1000.0 nM
[34] = target: Mitogen-activated protein kinase 11 (Homo sapiens) (UniProt Q15759); details: Compound concentration 1000.0 nM
[35] = target: Serine/threonine-protein kinase DCLK3 (Homo sapiens) (UniProt Q9C098); details: Compound concentration 1000.0 nM
[36] = tested on: Phosphatidylinositol 4,5-bisphosphate 3-kinase catalytic subunit alpha isoform (Homo sapiens), P42336 [Q546K]; details: Compound concentration 1000.0 nM
Sequence of Phosphatidylinositol 4,5-bisphosphate 3-kinase catalytic subunit alpha isoform (Homo sapiens), P42336 [Q546K] (P42336 whole entry Q546K, canonical isoform): as the sequence (P42336 whole entry E542K, canonical isoform) above, with K542E, Q546K counted along it

[37] = tested on: Proto-oncogene tyrosine-protein kinase receptor Ret (Homo sapiens), P07949 [V804M]; details: Compound concentration 1000.0 nM
[38] = target: Mitogen-activated protein kinase 4 (Homo sapiens) (UniProt P31152); details: Compound concentration 1000.0 nM
[39] = target: 5'-AMP-activated protein kinase catalytic subunit alpha-2 (Homo sapiens) (UniProt P54646); details: Compound concentration 1000.0 nM
[40] = target: Mitogen-activated protein kinase 10 (Homo sapiens) (UniProt P53779); details: Compound concentration 1000.0 nM
Sequence of Mitogen-activated protein kinase 10 (Homo sapiens) (P53779 whole entry): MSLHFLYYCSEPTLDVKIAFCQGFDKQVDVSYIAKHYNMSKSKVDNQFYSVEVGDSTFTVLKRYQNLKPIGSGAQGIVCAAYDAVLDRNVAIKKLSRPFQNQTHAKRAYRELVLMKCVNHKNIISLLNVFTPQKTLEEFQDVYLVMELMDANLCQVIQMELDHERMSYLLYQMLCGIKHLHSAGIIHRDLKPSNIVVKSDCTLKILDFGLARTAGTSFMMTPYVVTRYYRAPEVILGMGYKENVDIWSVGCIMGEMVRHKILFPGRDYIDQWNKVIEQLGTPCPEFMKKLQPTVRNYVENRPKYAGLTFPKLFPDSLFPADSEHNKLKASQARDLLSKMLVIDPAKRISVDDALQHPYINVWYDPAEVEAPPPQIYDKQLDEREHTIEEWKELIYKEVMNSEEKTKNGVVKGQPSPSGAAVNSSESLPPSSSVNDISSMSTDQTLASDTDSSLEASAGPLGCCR

[41] = tested on: Tyrosine-protein kinase ABL1 (Homo sapiens), P00519 [M351T]; details: Compound concentration 1000.0 nM
[42] = target: Leukocyte tyrosine kinase receptor (Homo sapiens) (UniProt P29376); details: Compound concentration 1000.0 nM
[43] = target: Fibroblast growth factor receptor 2 (Homo sapiens) (UniProt P21802); details: Compound concentration 1000.0 nM
[44] = target: Tyrosine-protein kinase JAK1 (Homo sapiens) (UniProt P23458); details: Compound concentration 1000.0 nM
Sequence of Tyrosine-protein kinase JAK1 (Homo sapiens) (P23458 whole entry): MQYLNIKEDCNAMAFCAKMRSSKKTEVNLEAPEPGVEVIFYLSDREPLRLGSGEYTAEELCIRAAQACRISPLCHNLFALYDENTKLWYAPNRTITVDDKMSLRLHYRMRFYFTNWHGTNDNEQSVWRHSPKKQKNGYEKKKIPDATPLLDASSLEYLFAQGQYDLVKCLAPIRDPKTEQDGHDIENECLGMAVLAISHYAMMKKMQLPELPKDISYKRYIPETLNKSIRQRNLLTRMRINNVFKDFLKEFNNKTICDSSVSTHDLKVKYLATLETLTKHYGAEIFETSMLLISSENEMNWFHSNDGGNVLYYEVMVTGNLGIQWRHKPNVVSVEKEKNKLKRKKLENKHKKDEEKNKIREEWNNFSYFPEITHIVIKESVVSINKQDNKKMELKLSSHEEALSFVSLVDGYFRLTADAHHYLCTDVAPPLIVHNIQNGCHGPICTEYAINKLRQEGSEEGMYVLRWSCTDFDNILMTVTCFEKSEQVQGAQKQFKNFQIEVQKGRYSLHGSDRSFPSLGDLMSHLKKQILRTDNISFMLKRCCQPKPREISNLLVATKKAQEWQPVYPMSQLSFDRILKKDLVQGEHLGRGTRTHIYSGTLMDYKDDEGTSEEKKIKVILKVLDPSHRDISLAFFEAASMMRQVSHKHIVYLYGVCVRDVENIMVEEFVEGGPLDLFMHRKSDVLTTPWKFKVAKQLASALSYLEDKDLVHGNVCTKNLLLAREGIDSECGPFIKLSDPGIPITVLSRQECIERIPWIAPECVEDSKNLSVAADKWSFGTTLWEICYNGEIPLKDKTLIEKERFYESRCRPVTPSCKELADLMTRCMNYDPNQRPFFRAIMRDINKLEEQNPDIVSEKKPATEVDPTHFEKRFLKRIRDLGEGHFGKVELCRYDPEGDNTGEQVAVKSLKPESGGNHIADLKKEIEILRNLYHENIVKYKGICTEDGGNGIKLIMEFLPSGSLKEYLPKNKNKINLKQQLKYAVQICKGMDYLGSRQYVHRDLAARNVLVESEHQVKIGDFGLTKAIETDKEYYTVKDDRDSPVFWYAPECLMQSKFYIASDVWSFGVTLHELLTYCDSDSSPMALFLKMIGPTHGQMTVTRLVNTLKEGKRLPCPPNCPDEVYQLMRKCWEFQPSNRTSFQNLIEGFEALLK

[45] = target: SRSF protein kinase 1 (Homo sapiens) (UniProt Q96SB4); details: Compound concentration 1000.0 nM

Structure (SMILES): CO[C@@H](C)c1c(Nc2ccc([C@H](N(C)C(=O)C3CCS(=O)(=O)CC3)C(F)(F)F)cc2)cnc2cc(Cl)nn12 [NVS-MALT1]
- residual activity [1]: 100%
- residual activity [2]: 99%
- residual activity [3]: 72%
- residual activity [4]: 98%
- residual activity [5]: 78%
- residual activity [6]: 66%
- residual activity [7]: 100%
- residual activity [8]: 100%
- residual activity [9]: 99%
- inhibition [10]: -4.22%
- residual activity [11]: 100%
- residual activity [12]: 100%
- residual activity [13]: 100%
- residual activity [14]: 100%
- residual activity [15]: 71%
- residual activity [16]: 100%
- residual activity [17]: 90%
- residual activity [18]: 100%
- residual activity [19]: 87%
- residual activity [20]: 100%
- residual activity [21]: 59%
- residual activity [22]: 100%
- residual activity [23]: 91%
- residual activity [24]: 71%
- residual activity [25]: 100%
- inhibition [26]: 2.45%
- residual activity [27]: 100%
- residual activity [28]: 100%
- residual activity [29]: 94%
- residual activity [30]: 90%
- residual activity [31]: 83%
- residual activity [32]: 39%
- residual activity [33]: 100%
- residual activity [34]: 79%
- residual activity [35]: 100%
- residual activity [36]: 100%
- residual activity [37]: 94%
- residual activity [38]: 94%
- residual activity [39]: 100%
- residual activity [40]: 96%
- residual activity [41]: 65%
- residual activity [42]: 98%
- residual activity [43]: 91%
- residual activity [44]: 100%
- residual activity [45]: 96%

Structure (SMILES): CO[C@@H](C)c1c(Nc2ccc([C@@H](N(C)C(=O)C3CCS(=O)(=O)CC3)C(F)(F)F)cc2)cnc2cc(Cl)nn12 [NVS-MALT1-C]
- residual activity [1]: 100%
- residual activity [2]: 99%
- residual activity [3]: 75%
- residual activity [4]: 99%
- residual activity [5]: 75%
- residual activity [6]: 72%
- residual activity [7]: 100%
- residual activity [8]: 100%
- residual activity [9]: 94%
- inhibition [10]: 3.25%
- residual activity [11]: 100%
- residual activity [12]: 100%
- residual activity [13]: 98%
- residual activity [14]: 100%
- residual activity [15]: 78%
- residual activity [16]: 100%
- residual activity [17]: 95%
- residual activity [18]: 100%
- residual activity [19]: 100%
- residual activity [20]: 100%
- residual activity [21]: 52%
- residual activity [22]: 100%
- residual activity [23]: 94%
- residual activity [24]: 77%
- residual activity [25]: 100%
- inhibition [26]: 4.93%
- residual activity [27]: 100%
- residual activity [28]: 94%
- residual activity [29]: 97%
- residual activity [30]: 100%
- residual activity [31]: 87%
- residual activity [32]: 96%
- residual activity [33]: 97%
- residual activity [34]: 86%
- residual activity [35]: 100%
- residual activity [36]: 100%
- residual activity [37]: 87%
- residual activity [38]: 100%
- residual activity [39]: 78%
- residual activity [40]: 78%
- residual activity [41]: 59%
- residual activity [42]: 95%
- residual activity [43]: 84%
- residual activity [44]: 89%
- residual activity [45]: 95%
